*1 amine or outer side, *2 acyl side, *3 side chain or, on linkers, in order; H or OH if unused. Where a SMILES comes first, the peptide text is derived from it. Side-chain parts run from the residue outwards. [ ]: non-standard residue; d: D form. The star is where a group is joined. C18 diacid = O=C(O)CCCCCCCCCCCCCCCCC(=O)*; γGlu = O=C(O)[C@H](CCC(=O)[*:2])N[*:1]; Aib = CC(C)(N)C(=O)O; Sar = CNCC(=O)O
Columns and labels:
[1] = biological target: T1, human GIP receptor (hGIPR) (Homo sapiens, UniProt P48546); assay: Binding assay, displacement of [125I]GIP from HEK-293 membranes expressing GIPR; details: [125I]GIP displacement
T1 sequence (P48546 22-466): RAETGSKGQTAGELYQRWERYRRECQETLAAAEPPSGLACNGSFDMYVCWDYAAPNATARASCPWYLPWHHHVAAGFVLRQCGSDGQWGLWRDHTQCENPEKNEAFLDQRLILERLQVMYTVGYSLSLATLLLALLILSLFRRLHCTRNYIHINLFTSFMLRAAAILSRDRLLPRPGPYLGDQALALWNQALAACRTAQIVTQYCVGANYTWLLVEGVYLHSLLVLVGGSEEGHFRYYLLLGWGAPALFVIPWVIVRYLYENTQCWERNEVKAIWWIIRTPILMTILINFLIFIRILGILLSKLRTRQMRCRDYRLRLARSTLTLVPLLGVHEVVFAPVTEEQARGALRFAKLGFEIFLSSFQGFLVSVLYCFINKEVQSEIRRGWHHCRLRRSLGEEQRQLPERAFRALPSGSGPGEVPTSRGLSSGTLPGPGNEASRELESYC
Description: HEK-293 cells recombinantly over-expressing GIPR or GLP-1R were grown to 50% confluency, washed with warm 1×PBS (Gibco) and detached in HEPES/EDTA-buffer (100 mM HEPES pH 7.5, 5 mM EDTA). Cells were harvested by centrifugation at 4° C. and 3000×g and the pellets were stored at −80° C. until further processing.
After thawing on ice, pellets were resuspended in HEPES/EDTA-buffer and homogenized on ice for 1 min using Ultra-Turray T25. After subsequent sonification the cell debris was removed by centrifugation at 1000×g and 4° C. Supernatants were then ultra-centrifuged at 100000×g and 4° C. under vacuum for 30 min. Pellets were resuspended in HEPES/EDTA/NaCl-buffer (20 mM HEPES, 1 mM EDTA, 150 mM NaCl; add 1 Complete Mini Protease inhibitor cocktail to 10 ml buffer) and protein content was determined via BCA-Protein assay.

[2] = Dynamic light scattering (DLS) for the assessment of physical stability; type: physicochemical; details: DLS buffer system A
Description: A monochromatic and coherent light beam (laser) is used to illuminate the liquid sample. Dynamic Light Scattering (DLS) measures light scattered from particles (1 nm≤radius≤1 μm) that undergo Brownian motion. This motion is induced by collisions between the particles and solvent molecules, that themselves are moving due to their thermal energy. The diffusional motion of the particles results in temporal fluctuations of the scattered light (R. Pecora, Dynamic Light Scattering: Applications of Photon Correlation Spectroscopy, Plenum Press, 1985).
The scattered light intensity fluctuations are recorded and transformed into an autocorrelation function. By fitting the autocorrelation curve to an exponential function, the diffusion coefficient D of the particles in solution can be derived. The diffusion coefficient is then used to calculate the hydrodynamic radius Rh (or apparent Stokes radius) through the Stokes-Einstein equation assuming spherical particles. This calculation is defined in ISO 13321 and ISO 22412 (International Standard ISO13321 Methods for Determination of Particle Size Distribution Part 8: Photon Correlation Spectroscopy, International Organisation for Standardisation (ISO) 1996; International Standard ISO22412 Particle Size Analysis—Dynamic Light Scattering, International Organisation for Standardisation, 2008).
In case of polydisperse samples, the autocorrelation function is the sum of the exponential decays corresponding to each of the species. The temporal fluctuations of the scattered light can then be used to determine the size distribution profile of the particle fraction or family. The first order result is an intensity distribution of scattered light as a function of the particle size. The intensity distribution is naturally weighted according to the scattering intensity of each particle fraction or family. For biological materials or polymers, the particle scattering intensity is proportional to the square of the molecular weight. Thus, small amount of aggregates/agglomerates or presence or a larger particle species can dominate the intensity distribution. However, this distribution can be used as a sensitive detector for the presence of large material in the sample.
The DLS technique produces distributions with inherent peak broadening. The polydispersity index % Pd is a measure of the width of the particle size distribution and is calculated by standard methods described in ISO13321 and ISO22412 [International Standard ISO13321 Methods for Determination of Particle Size Distribution Part 8: Photon Correlation Spectroscopy, International Organisation for Standardisation (ISO) 1996; International Standard ISO22412 Particle Size Analysis—Dynamic Light Scattering, International Organisation for Standardisation (ISO) 2008].
Solutions from solid samples were prepared in buffer systems (see below) with a target concentration of 300 μM compound based on the previously determined % purity.
DLS buffer system A) 20 mM phosphate buffer pH 7.4
DLS buffer system B) 8 mM phosphate buffer pH 7.4, 14 mg/ml propylene glycol, 5.5 mg/ml phenol
DLS buffer system C) 100 mM phosphate buffer pH 7.4, 2.7 mg/ml m-cresol Solutions were filtered through 0.22 μm pore size and filled into sterilized glass containers under laminar flow conditions. For every peptide solution, the apparent hydrodynamic radius (Rh), the corresponding Scattering Intensity (I), and the Mass Contribution (M) were determined as an average over 3-6 replicates from the intensity distribution of the scattered light averaging only high-quality measurements. Relative standard deviations (RSD) for these parameters were calculated from the same number of replicates. […]

human GIP receptor = biological target: T2, human GIP receptor (Homo sapiens, UniProt P48546); assay: cAMP HTRF assay in human adipocytes endogenously expressing the human GIP receptor; type: cell-based; details: for EC50: read-out: hGIPR EC50; for Emax: read-out: hGIPR Emax
T2 construct: human adipocytes endogenously expressing the human GIP receptor; host or cells: human preadipocytes (Lonza) differentiated to adipocytes
T2 sequence (P48546 22-466): T1 sequence (P48546 22-466)
Description: For this, one vial of human preadipocytes (˜10^6 cells; Lonza) was thawed in a T-75 cell culture dish.
After 3 days, the cells were washed with PBS and 1.5 ml Trypsin, incubated for 4 min, then resuspended in medium, centrifugated for 10 min @ 300 rcf RT, resuspended again and distributed to four T-75 cell culture dishes.
After 5 days, the cells were washed with PBS and 1.5 ml Trypsin, incubated for 4 min, then resuspended in medium, centrifugated for 10 min @ 300 rcf RT, resuspended again and sawn in T-75 dishes (2.5×10^6 cells per dish) in 15 ml Differentiation medium each.
After 6 days of differentiation, 5000 cells per well were dispensed on a 96-well plate (#CLS3694 from Corning®, Sigma-Aldrich). For measurement of cAMP generation, 25 μL of test compound was added to each well of the 96-well plate, followed by incubation for 30 min at room temperature.
The cAMP generated following test compound stimulation was determined using a kit from Cisbio Corp. based on HTRF (Homogenous Time Resolved Fluorescence). The cAMP assay was performed according to manufacturer's instructions (Cisbio).
The cAMP content of cells was determined using a kit from Cisbio Corp. based on HTRF (Homogenous Time Resolved Fluorescence).

Row | SMILES | IC50 [1] [nM] | I and SD (Scattering Intensity) ([2]; 0 weeks) [%] | M and SD (Mass Contribution) ([2]; 0 weeks) [%] | apparent Rh and SD ([2]; 0 weeks) [nm] | I and SD (Scattering Intensity) ([2]; 4 weeks storage at 40° C.) [%] | M and SD (Mass Contribution) ([2]; 4 weeks storage at 40° C.) [%] | apparent Rh and SD ([2]; 4 weeks storage at 40° C.) [nm] | EC50 (human GIP receptor) [nM] | Emax (human GIP receptor) [%]
1 | CC[C@H](C)[C@H](NC(=O)[C@H](CCCNC(=N)N)NC(=O)[C@H](CC(=O)O)NC(=O)[C@H](CCCCNC(=O)CNC(=O)CNC(=O)CNC(=O)CC[C@H](NC(=O)CCCCCCCCCCCCCCCCC(=O)O)C(=O)O)NC(=O)C(C)(C)NC(=O)[C@@H](NC(=O)[C@H](CO)NC(=O)[C@H](CC(C)C)NC(=O)[C@H](CC(=O)O)NC(=O)[C@H](CO)NC(=O)[C@@H](NC(=O)[C@H](Cc1ccccc1)NC(=O)[C@@H](NC(=O)CNC(=O)[C@H](CCC(=O)O)NC(=O)C(C)(C)NC(=O)[C@@H](N)Cc1ccc(O)cc1)[C@@H](C)O)[C@@H](C)CC)[C@@H](C)CC)C(=O)N[C@@H](Cc1c[nH]cn1)C(=O)N[C@@H](CCC(N)=O)C(=O)NC(C)(C)C(=O)N[C@@H](CCC(=O)O)C(=O)N[C@@H](Cc1ccccc1)C(=O)N[C@H](C(=O)N[C@@H](CCC(=O)O)C(=O)N[C@@H](Cc1c[nH]c2ccccc12)C(=O)N[C@@H](CC(C)C)C(=O)N[C@@H](CC(C)C)C(=O)N[C@@H](C)C(=O)N[C@@H](CCC(N)=O)C(=O)NCC(=O)N1CCC[C@H]1C(=O)N[C@@H](CO)C(=O)N[C@@H](CO)C(=O)NCC(=O)N[C@@H](C)C(=O)N1CCC[C@H]1C(=O)N1CCC[C@H]1C(=O)N1CCC[C@H]1C(=O)N[C@@H](CO)C(N)=O)[C@@H](C)CC [SEQ ID NO: 5, H2N-Y-Aib-E-G-T-F-I-S-D-I-S-I-Aib-K[{Gly}3-gGlu-C18OH]-D-R-I-H-Q-Aib-E-F-I-E-W-I-L-A-Q-G-P-S-S-G-A-P-P-P-S-NH2] (H-Y[Aib]EGTFISDLSI[Aib]K([Gly-Gly-Gly-γGlu-C18 diacid])DRIHQ[Aib]EFIEWLLAQGPSSGAPPPS-NH2) | 0.1 | 76 ± 2 | 100 ± 0 | 2.05 ± 0.04 | 89 ± 3 | 100 ± 0 | 1.99 ± 0.03 | 0.5 | 137
2 | CC[C@H](C)[C@H](NC(=O)[C@H](CCCNC(=N)N)NC(=O)[C@H](CC(=O)O)NC(=O)[C@H](CCCCNC(=O)CN(C)C(=O)CN(C)C(=O)CN(C)C(=O)CC[C@H](NC(=O)CCCCCCCCCCCCCCCCC(=O)O)C(=O)O)NC(=O)C(C)(C)NC(=O)[C@@H](NC(=O)[C@H](CO)NC(=O)[C@H](CC(C)C)NC(=O)[C@H](CC(=O)O)NC(=O)[C@H](CO)NC(=O)[C@@H](NC(=O)[C@H](Cc1ccccc1)NC(=O)[C@@H](NC(=O)CNC(=O)[C@H](CCC(=O)O)NC(=O)C(C)(C)NC(=O)[C@@H](N)Cc1ccc(O)cc1)[C@@H](C)O)[C@@H](C)CC)[C@@H](C)CC)C(=O)N[C@@H](Cc1c[nH]cn1)C(=O)N[C@@H](CCC(N)=O)C(=O)NC(C)(C)C(=O)N[C@@H](CCC(=O)O)C(=O)N[C@@H](Cc1ccccc1)C(=O)N[C@H](C(=O)N[C@@H](CCC(=O)O)C(=O)N[C@@H](Cc1c[nH]c2ccccc12)C(=O)N[C@@H](CC(C)C)C(=O)N[C@@H](CC(C)C)C(=O)N[C@@H](C)C(=O)N[C@@H](CCC(N)=O)C(=O)NCC(=O)N1CCC[C@H]1C(=O)N[C@@H](CO)C(=O)N[C@@H](CO)C(=O)NCC(=O)N[C@@H](C)C(=O)N1CCC[C@H]1C(=O)N1CCC[C@H]1C(=O)N1CCC[C@H]1C(=O)N[C@@H](CO)C(N)=O)[C@@H](C)CC [SEQ ID NO: 6, H2N-Y-Aib-E-G-T-F-I-S-D-I-S-I-Aib-K[{N-MeGly}3-gGlu-C18OH]-D-R-I-H-Q-Aib-E-F-I-E-W-I-L-A-Q-G-P-S-S-G-A-P-P-P-S-NH2] (H-Y[Aib]EGTFISDLSI[Aib]K([Sar-Sar-Sar-γGlu-C18 diacid])DRIHQ[Aib]EFIEWLLAQGPSSGAPPPS-NH2) | 0.1 | 86 ± 2 | 100 ± 0 | 1.92 ± 0.03 | 83 ± 1 | 100 ± 0 | 1.94 ± 0.03 | 0.3 | 112
